These are literature values, as cited in patent US20060020045A1, “Methods and compositions for treating inflammatory disorders of the gastrointestinal tract” (priority 2004, published 2006).

In the series the test system is dimethylhydrazine-induced colon carcinogenesis. Conditions: effect only when present during carcinogen administration, not if given 17 weeks following the carcinogen.

Consider `CC1=C(CC(=O)O)c2cc(F)ccc2/C1=C\c1ccc([S+](C)[O-])cc1` (stereo not shown) [sulindac], for which the tumor incidence entry was “reduce tumor incidence only when present during carcinogen administration”.
